From US6564152B2, “Pharmacophore models for, methods of screening for, and identification of the cytochrome P-450 inhibitory potency of neurokinin-1 receptor antagonists” (Pfizer Inc, priority 2000, dated 2003)
Read-outs that look alike come from different tables or passages of the source.

Molecular target: recombinant CYP2D6 (Homo sapiens, UniProt P10635)
Assay: Bufuralol 1'-hydroxylase assay (CYP2D6) IC50 determination
[1] = CYP2D6 IC50, recombinant CYP2D6 0.1 mg/ml, bufuralol 3.4 μM, 37° C., pH 7.4, Table I
[2] = IC50 Observed, test set of 8 compounds, in vitro values as measured in Example 1, Table II

Sequence of recombinant CYP2D6 (P10635 whole entry): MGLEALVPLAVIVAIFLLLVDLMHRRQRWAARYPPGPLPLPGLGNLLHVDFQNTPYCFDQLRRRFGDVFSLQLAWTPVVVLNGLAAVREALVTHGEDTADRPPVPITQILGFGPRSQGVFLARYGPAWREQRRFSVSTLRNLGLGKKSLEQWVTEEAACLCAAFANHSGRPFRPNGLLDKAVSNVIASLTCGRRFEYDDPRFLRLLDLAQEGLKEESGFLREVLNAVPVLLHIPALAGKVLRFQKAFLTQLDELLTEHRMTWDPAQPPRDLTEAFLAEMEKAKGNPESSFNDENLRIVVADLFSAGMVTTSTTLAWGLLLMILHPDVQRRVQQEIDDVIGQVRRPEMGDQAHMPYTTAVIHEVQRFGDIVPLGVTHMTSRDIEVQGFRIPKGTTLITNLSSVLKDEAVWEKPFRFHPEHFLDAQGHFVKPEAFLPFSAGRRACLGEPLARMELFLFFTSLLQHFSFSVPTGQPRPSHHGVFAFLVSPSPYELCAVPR
Description: Using a bufuralol-hydroxylation as a marker for CYP2D6 catalytic activity, the inhibitory effect of various NK-1 antagonists were assessed in vitro. The inhibitor compounds of Table I were assayed for CYP2D6 activity by the following procedure.
Two separate plates were prepared for the substrate and for dilutions of inhibitor. The contents of the two plates were combined in a 1:1 ratio to make a master plate of substrate and inhibitor solutions (S/I plate). The remaining assay ingredients, a combination of CYP2D6 (0.1 mg/ml, 0.12 pmol/ml, Panvera, Madison Wis.), NADPH (1.2 mM) and buffer (100 mM sodium phosphate, pH 7.4), are prepared on ice and transferred to a polyvinyl reaction plate (RXN plate). […] The RXN plate is pre-warmed to 37° C. using a MJ Research Model PTC-100 automated thermal controller, and the reaction is initiated by addition of an aliquot from the S/I plate. The reaction is allowed to proceed at 37° C. before being terminated using 70% perchloric acid (50 μl). HPLC analysis is preceded by filtration of (150μl) using a Millipore multiscreen-MAHA mixed cellulose esters, triton free, non-sterile plate (Millipore Co., Bedford, Mass.).
The reactions were then terminated as described above and Multiscreen plates were then used to filter the samples by slowly drawing them through the filter plate by a weak vacuum and collecting them in a polypropylene 96-well plate. The plate was mixed by drawing up and expelling well contents twice with the Soken pipettor. A 20 μl volume of each sample was injected for HPLC analysis every 2.5 minutes. When required, concentrations of the inhibitor were adjusted in a repeat experiment to cover concentration ranges above and below the reported IC50 value.
The mobile phase consisted of acetonitrile and water 20/80 v/v containing triethylamine (1 ml/liter) and phosphoric acid (600 l/liter) at a flow rate of 0.5 ml/min (analytical side) and 1.8 ml/min (wash side) using a column switching format. HPLC analysis was performed with two alternating HPLC columns (column A and column B) attached to a Valco E36 valve. Between 0 and 5.2 minutes of the run time, column A analyses metabolite peak of sample #1. […] During the wash cycle, the flow to column A is increased to 1.8 ml/min. […] A Phenomex primesphere C1 8-MC, 5 μm, 30×2 mm column (Phenomenex, Torrance, Calif.) was used. The retention time of the 1′-hydroxybufuralol (carbinol) metabolite was 1.0 minute. The peak area of the carbinol metabolite was determined in the absence of inhibitor and compared to that measured in the presence of inhibitor. The percent of control values versus inhibitor concentration were fitted to a Hill equation using non-linear curve fitting methods, namely, Deltagraph (DeltaPoint, Inc., Monterey, Calif.).

IC50 [1] | IC50 [2] | SMILES | IC50
7100 nM | 7100 nM | O=c1[nH]nc(CN2CCO[C@H](OCc3cc(C(F)(F)F)cc(C(F)(F)F)c3)[C@@H]2c2ccccc2)[nH]1 [Compound XXIV] | 
18400 nM |  | C[C@@H](O[C@H]1OCCN(Cc2n[nH]c(=O)[nH]2)[C@H]1c1ccc(F)cc1)c1cc(C(F)(F)F)cc(C(F)(F)F)c1 [Compound XXI] | 
21 nM |  | COc1ccccc1[C@H]1CC[C@]2(CCCN[C@@H]2c2ccccc2)NC1 [Compound XX] | 
370 nM |  | COc1ccc(OC)c(CN[C@H]2CCCN[C@H]2c2ccccc2)c1 [Compound X] | 
16 nM | 16 nM | COc1ccccc1CN[C@@H]1CCCC[C@@H]1C(c1ccccc1)c1ccccc1 [II] | 
200 nM | 21 nM | COc1ccccc1CN[C@H]1CCCN[C@H]1c1ccccc1 [IV] | 
130 nM |  | COc1ccccc1CN[C@@H]1[C@H]2CCC[C@H]2N[C@@H]1c1ccccc1 [IX] | 
 |  | Clc1ccccc1CN[C@@H]1C2CCN(CC2)[C@@H]1C(c1ccccc1)c1ccccc1 [I] | 59 nM
22 nM |  | COc1ccccc1CN[C@@H]1C2CC3CCCC(C2)N3[C@@H]1C(c1ccccc1)c1ccccc1 [VIII] | 
65 nM |  | Clc1ccccc1CN[C@@H]1C2CC3CCC(C2)N3[C@@H]1C(c1ccccc1)c1ccccc1 [VII] | 
13 nM | 13 nM | c1ccc(CN[C@@H]2C3CC4CCC(C3)N4[C@@H]2C(c2ccccc2)c2ccccc2)cc1 [VI] | 
41 nM |  | COc1ccccc1CN[C@@H]1C2CC3CCC(C2)N3[C@@H]1C(c1ccccc1)c1ccccc1 [V] | 
13 nM |  | COc1ccccc1CC(=N)N1C[C@H]2C(=O)CCC(c3ccccc3)(c3ccccc3)[C@H]2C1 [XIII] | 
6.7 nM |  | COc1ccccc1CN[C@@H]1C2C3CCCC2CN(C3)[C@@H]1C(c1ccccc1)c1ccccc1 [XII] | 
38 nM | 38 nM | CC(C)Oc1ccccc1CN[C@H]1CCCN[C@H]1c1ccccc1 [XIV] | 
 |  | CC(C)Oc1ccc(OC(F)(F)F)cc1CN[C@H]1CCCN[C@H]1c1ccccc1 [XIX] | 47 nM
16 nM | 16 nM | Clc1ccccc1CN[C@@H]1C2C3CCCC2CN(C3)[C@@H]1C(c1ccccc1)c1ccccc1 [XI] | 
45 nM |  | CCOc1ccc(OC(F)(F)F)cc1CN[C@H]1CCCN[C@H]1c1ccccc1 [XVIII] | 
40 nM |  | FC(F)(F)Oc1ccccc1CN[C@H]1CCCN[C@H]1c1ccccc1 [XVII] | 
74 nM |  | FC(F)Oc1ccccc1CN[C@H]1CCCN[C@H]1c1ccccc1 [XVI] | 
8800 nM |  | FC(F)(F)c1cc(CO[C@H]2OCCN(Cc3nnc[nH]3)[C@H]2c2ccccc2)cc(C(F)(F)F)c1 [XXIII] | 
530 nM |  | COc1ccc(-n2nnnc2C(F)(F)F)cc1CN[C@H]1CCCN[C@H]1c1ccccc1 [XXVI] | 
320 nM | 320 nM | COc1ccc(-n2cnnn2)cc1CN[C@H]1CCCN[C@H]1c1ccccc1 [XXV] | 

SMILES | IC50 [1] | IC50 [2] | IC50
COc1ccccc1CN[C@@H]1C2CCN(CC2)[C@@H]1C(c1ccccc1)c1ccccc1 [III] | 170 nM |  | 
